According to patent US8093052B2, “Serum-free culture medium for the production of recombinant gonadotropins” (Ares Trading S.A., priority 2005, dated 2012):
Where two headings read alike, the source gives them in different places.

What was measured:
oxidized forms of rFSH = test: Oxidized forms of rFSH by RP-HPLC on crude harvest of CHO culture in serum-free medium with antioxidant; assay type: cell-based, human; conditions: for ranking of antioxidants for obtaining low levels of rFSH oxidized forms: Runs 1 and 2, Table II; for antioxidant quality from analyses of oxidized rFSH forms: antioxidant added to the culture medium, runs 3 to 5
Description: (§1) All experiments were performed with a CHO cell line expressing both subunits of human FSH. The produced protein is a dimeric gonadotropin further referred to as rFSH. The alpha subunit corresponds to SwissProt Accession No. P01215 and the beta subunit corresponds to SwissProt Accession No. P01225.
The medium used for cell cultivation was a basic serum-free medium (SFM) designed for cultivation of CHO cells. The SFM medium was supplemented with the antioxidant to be tested as detailed in Example 3.
(§2) At least 2.4.10^9 viable rFSH-producing cells were transferred to a 15 L bioreactor with an effective working volume of 11 L (newMBR, Zürich) comprising microcarriers. Immediately after seeding followed a batch phase that lasted for two or three days. The bioreactor was then continuously fed with SFM to a dilution rate of 1 day^−1 and to a perfusion rate at 11 L·day)^−1.
Growth phase and production phase were performed at the same pH and temperature (37° C., pH=7). The Dissolved Oxygen (DO) was maintained at 50% air saturation during the whole run.
Oxidized forms were determined by RP-HPLC on crude harvest as described by Bassett and Driebergen (Bassett and Driebergen, 2005).
SFM was supplemented with several antioxidant or combination of antioxidants in order to reach the final concentration shown in Table II. Each antioxidant or combination of antioxidants was tested for a period of about ten days. The first day of the test, the volume of antioxidant solution necessary to reach the set-point was added. Every day thereafter, a certain amount of antioxidant was washed out from the bioreactor by perfusion and replaced by one time addition (for a dilution rate of 1 d^−1, 63.2% of the bioreactor volume was renewed every 24 h and this represents the amount of antioxidant to be replaced every day). At the end of the test period, the antioxidant was washed out from the bioreactor by perfusion, and replaced by another antioxidant to be tested.
The percentage of oxidized forms of rFSH was measured at the end of each test (table II).
One run (run 3) was performed to test various concentrations of L-glutathione (from 1 to 20 mg/L), and one run (run 4) was performed to test various concentrations of L-methionine (from 0.25 to 3 g/L) and. […] Working Day zero (WDO) is defined as the day during which the bioreactor is seeded. Production Day zero (PDO) is defined as the day during which the cell culture process is switch from growth phase to production phase. In addition, a run was performed without varying the antioxidant concentration. In this run, the L-methionine was added at 250 mg/L from the beginning (run 5). For all runs, the percentage of oxidized forms of rFSH was measured regularly (table IV).

[1] = system: CHO cell line expressing both subunits of human FSH; test: Total viable cells ratio (TVC ratio) during antioxidant test period; assay type: cell-based, Chinese Hamster; conditions: end of test/start of test, >=1.0 = no toxic effect
Description: as §1, §2
The total viable cell concentration is defined as the sum of the concentration of cells attached on microcarriers and the concentration of viable cells in suspension.
The Total Viable Cells Ratio (TVC Ratio) for was calculated as follows: [total viable cell concentration, end of test]/[total viable cell concentration, start of test] wherein the start of test is defined as the day at which a new antioxidant is introduced in the culture, and the end of test is defined as the day before the next antioxidant is introduced in the culture.
(§3) The total viable cell concentration, the GCR and the rFSH titers were measured daily.

[2] = system: CHO cell line expressing both subunits of human FSH
Description: The rFSH titer was measured by an immunofluorimetric assay, using the Delphia hFSH kit from Wallac-ADL (Cat. No. A017-201).
The glucose consumption rate (GCR), expressed in gram per liter and per day, was calculated as follows: GCR=(G0−Gt)Dt+(Gt−1−Gt)
G stands for “Glucose concentration” and D stands for “dilution rate”. The indexes refer to the following:
as §3

N[C@@H](CCC(=O)N[C@@H](CS)C(=O)NCC(=O)O)C(=O)O [L-glutathione]
oxidized forms (normalized value) (oxidized forms of rFSH; Run 1, 3 mg/L, measured WD50, divided by 23.4% (L-cysteine 280 mg/L, run 2)): 0.61
% of oxidized forms (oxidized forms of rFSH; Run 1, mean concentration 3 mg/L, tested WD40 to WD50, measured WD50): 14.2%
decrease of percentage of oxidized forms (oxidized forms of rFSH; Run 3, 2.5 mg/L, compared to run 1 and run 2 with L-cysteine as antioxidant): around 35%
% oxidized forms (oxidized forms of rFSH; Run 3, mean concentration 1 mg/L, measured WD19): 18.31%
% oxidized forms (oxidized forms of rFSH; Run 3, mean concentration 2.5 mg/L, measured WD28): 14.26%
% oxidized forms (oxidized forms of rFSH; Run 3, mean concentration 5 mg/L, measured WD40): 23.99%
ranking of antioxidants for obtaining low levels of rFSH oxidized forms (oxidized forms of rFSH): best antioxidants for obtaining low levels of rFSH oxidized forms
antioxidant quality from analyses of oxidized rFSH forms (oxidized forms of rFSH): good antioxidant
TVC Ratio ([1]; Run 1, 3 mg/L, WD40 to WD50): 1.2
impact on viability of the cells, metabolism and productivity patterns [2]: did not have any major impact

N[C@@H](CS)C(=O)O [L-cysteine, reference compound]
oxidized forms (normalized value) (oxidized forms of rFSH; Run 1, 280 mg/L, measured WD20, divided by 23.4% (L-cysteine 280 mg/L, run 2)): 0.92
% of oxidized forms (oxidized forms of rFSH; Run 1, mean concentration 280 mg/L, tested WD10 to WD20, measured WD20): 21.5%
oxidized forms (normalized value) (oxidized forms of rFSH; Run 2, 280 mg/L, measured WD20, the reference itself (23.4%)): 1.00
oxidized forms (normalized value) (oxidized forms of rFSH; Run 2, 350 mg/L, measured WD50, divided by 23.4% (L-cysteine 280 mg/L, run 2)): 0.88
% of oxidized forms (oxidized forms of rFSH; Run 2, mean concentration 280 mg/L, tested WD0 to WD20, measured WD20): 23.4%
% of oxidized forms (oxidized forms of rFSH; Run 2, mean concentration 350 mg/L, tested WD40 to WD50, measured WD50): 20.5%

OCCS [2-mercaptoethanol]
oxidized forms (normalized value) (oxidized forms of rFSH; Run 1, 10 mg/L, measured WD59, divided by 23.4% (L-cysteine 280 mg/L, run 2)): 0.53
% of oxidized forms (oxidized forms of rFSH; Run 1, mean concentration 10 mg/L, tested WD50 to WD60, measured WD59): 12.3%
ranking of antioxidants for obtaining low levels of rFSH oxidized forms (oxidized forms of rFSH): best antioxidants for obtaining low levels of rFSH oxidized forms
TVC Ratio ([1]; Run 1, 10 mg/L, WD50 to WD60): 0.8

CSCC[C@H](N)C(=O)O [L-methionine]
oxidized forms (normalized value) (oxidized forms of rFSH; Run 1, 186 mg/L, measured WD38, divided by 23.4% (L-cysteine 280 mg/L, run 2)): 0.61
oxidized forms (normalized value) (oxidized forms of rFSH; Run 1, 734 mg/L, measured WD70, divided by 23.4% (L-cysteine 280 mg/L, run 2)): 0.60
% of oxidized forms (oxidized forms of rFSH; Run 1, mean concentration 186 mg/L, tested WD30 to WD40, measured WD38): 14.3%
% of oxidized forms (oxidized forms of rFSH; Run 1, mean concentration 734 mg/L, tested WD60 to WD70, measured WD70): 14.0%
% oxidized forms (oxidized forms of rFSH; Run 4, mean concentration 250 mg/L, measured WD19): 15.37%
% oxidized forms (oxidized forms of rFSH; Run 4, mean concentration 500 mg/L, measured WD28): 14.26%
% oxidized forms (oxidized forms of rFSH; Run 4, mean concentration 1000 mg/L, measured WD40): 13.56%
% oxidized forms (oxidized forms of rFSH; Run 4, mean concentration 2000 mg/L, measured WD49): 9.77%
% oxidized forms (oxidized forms of rFSH; Run 4, mean concentration 3000 mg/L, measured WD59): 12.66%
% oxidized forms (oxidized forms of rFSH; Run 5, 250 mg/L from the beginning, measured WD16-17): 16.91%
% oxidized forms (oxidized forms of rFSH; Run 5, 250 mg/L from the beginning, measured WD20-21): 14.45%
% oxidized forms (oxidized forms of rFSH; Run 5, 250 mg/L from the beginning, measured WD22-23): 12.94%
% oxidized forms (oxidized forms of rFSH; Run 5, 250 mg/L from the beginning, measured WD24-25): 12.16%
% oxidized forms (oxidized forms of rFSH; Run 5, 250 mg/L from the beginning, measured WD26-27): 10.54%
% oxidized forms (oxidized forms of rFSH; Run 5, 250 mg/L from the beginning, measured WD28-29): 12.83%
% oxidized forms (oxidized forms of rFSH; Run 5, 250 mg/L from the beginning, measured WD30-31): 13.21%
decrease of average percentage of oxidized forms (oxidized forms of rFSH; Run 5, 250 mg/L, compared to run 1 and run 2 with L-cysteine as antioxidant): around 40%
ranking of antioxidants for obtaining low levels of rFSH oxidized forms (oxidized forms of rFSH): best antioxidants for obtaining low levels of rFSH oxidized forms
antioxidant quality from analyses of oxidized rFSH forms (oxidized forms of rFSH): good antioxidant
TVC Ratio ([1]; Run 1, 186 mg/L, WD30 to WD40): 1.4
TVC Ratio ([1]; Run 1, 734 mg/L, WD60 to WD70): 1.0
impact on viability of the cells, metabolism and productivity patterns ([2]; in the range of concentration tested (runs 3 to 5), data not shown): did not have any major impact

CC(=O)N[C@@H](CS)C(=O)O [N-acetyl-L-cysteine]
oxidized forms (normalized value) (oxidized forms of rFSH; Run 2, 260 mg/L, measured WD38, divided by 23.4% (L-cysteine 280 mg/L, run 2)): 0.77
% of oxidized forms (oxidized forms of rFSH; Run 2, mean concentration 260 mg/L, tested WD30 to WD40, measured WD38): 18.1%
TVC Ratio ([1]; Run 2, 260 mg/L, WD30 to WD40): 1.3

O=C1O[C@H]([C@@H](O)CO)C(O)=C1O [L-ascorbic acid]
oxidized forms (normalized value) (oxidized forms of rFSH; Run 1, 10 mg/L, measured WD30, divided by 23.4% (L-cysteine 280 mg/L, run 2)): 0.74
% of oxidized forms (oxidized forms of rFSH; Run 1, mean concentration 10 mg/L, tested WD20 to WD30, measured WD30): 17.3%
TVC Ratio ([1]; Run 1, 10 mg/L, WD20 to WD30): 1.3
